Experimental findings from patent US5348960A, “Imidazo[4,5-b]quinolinyl oxy alkyl tetrazolyl piperidine derivatives” (Bristol-Myers Squibb Company, priority 1993, dated 1994) are described below.

Each structure is given as a SMILES string. Converted amounts (≈) assume the structure as drawn. Structures can show the parent of a compound that is named as a salt. A value given as a limit tells only on which side of the number the result lay.

The test system of data set [1] is ADP-induced aggregation of human blood platelets. The data set is described as follows: cells. To be noted: Platelet, read-out: IC50 vs ADP in human PRP. It counts as cell-based. As for the experimental part: The aggregometer method of Born, C. V. R., J. Physiol., (London), 162, 67-68, (1962) as modified by Mustard, J. F., et al., J. Lab. Clin. Med., 64, 548-599, (1964) was used to assess the in vitro activity of the various compounds as to the inhibition of adenosine diphosphate (ADP) and collagen-induced platelet aggregation. The human volunteer donor's arm is cleansed with 70% ethyl alcohol. A sterile 20 ml syringe and needle are used to withdraw 20 ml of blood. The blood is immediately added to a test tube containing 3.8% sodium citrate to prevent clotting (1 part citrate to 9 parts blood).
Platelet rich plasma (PRP) was separated by centrifugation for 10 minutes at 1000 rpm (140xg) from citrated (3.8%) human blood. All glassware used for preparation of PRP is silicon treated. ADP in final concentration of 0.5 μg/mL or 0.05 mL of a collagen suspension prepared according to the method described by Evans, G., et al., J. Exp. Med., 128, 877-894, (1968) was used to induce aggregation. The various compounds tested were dissolved in dimethylsulfoxide (DMSO) so that 5 μl added to the platelet rich plasma would yield the desired test concentration. Vehicle control trials were done and compared with aggregation induced in platelet rich plasma containing various concentrations of the test compounds. Dose response curves were obtained and Inhibitor Concentration (IC50) values calculated.
The target compounds were evaluated as inhibitors of ADP-induced aggregation of human blood platelets in platelet-rich-plasma (PRP) in vitro. The test compounds were incubated at about 37° C. in PRP for about 3 minutes prior to the addition of sufficient ADP to provide a final ADP concentration of 5.86 μM.

The next data set in a line: aqueous solubility. The settings on record: water, dihydrochloride salts. It counts as physicochemical.

In general, IC50 refers to the midpoint of a concentration-inhibition curve. Usually solubility stands for how much of the substance goes into solution per volume. `Oc1nc2cc3cc(OCCCc4nnnn4C4CCN(CCc5ccccc5)CC4)ccc3[nH]c-2n1` [Cmpd 12g, [5-[3-f 2,3-Dihydro-2-oxo-1H-imidazo[4,5-b]quinolin-7-yloxy)propyl]-1H-tetrazol-1-yl]-1-(2-phenylethyl) piperidine dihydrochloride]: the IC50 in data set [1] stood at 0.048 µg/mL. Besides, the solubility in the data set “aqueous solubility” is less than 5000 µg/mL. Taken in the same sequence, the figures for `Oc1nc2cc3cc(OCCCc4nnnn4C4CCN(Cc5ccccc5)CC4)ccc3[nH]c-2n1` [Cmpd 12b, [5-[3-(2,3-Dihydro-2-oxo-1H-imidazo [4,5-b]quinolin-7-yloxy)propyl]-1H-tetrazol-l-yl]-1-(phenylmethyl) piperidine dihydrochloride] were 0.022 µg/mL and more than 10000 µg/mL. The corresponding values for `Oc1nc2cc3cc(OCCCc4nnnn4C4CCN(CC5CCCCO5)CC4)ccc3[nH]c-2n1` (stereo not drawn) [Cmpd 12k, [5-[3-(2,3-Dihydro-2-oxo-1H-imidazo[4,5-b]quinolin-7-yloxy)propyl]-1H-tetrazol-1-yl]-1-[(terahydro-2H-pyran-2-yl)methyl]piperidine dihydrochloride] are 0.04 µg/mL and more than 10000 µg/mL.

As to `CC(C)CN1CCC(n2nnnc2CCCOc2ccc3nc4[nH]c(=O)[nH]c4cc3c2)CC1` [Cmpd 12f, [5-[3-(2,3-Dihydro-2-oxo-1H-imidazo[4,5-b]quinolin-7-yloxy)propyl]-1H-tetrazol-1-yl]-1-(2-methylprop-1-yl) piperidine dihydrochloride], in data set [1], the IC50 came to 0.005 µg/mL. Moreover, the solubility in the data set “aqueous solubility” is more than 10000 µg/mL.

For the compound `CCOC(=O)N1CCC(n2nnnc2CCCOc2ccc3nc4[nH]c(=O)[nH]c4cc3c2)CC1` [Cmpd 10a, Ethyl 4-[5-[3-(2,3-dihydro-2-oxo-1H-imidazo[4,5-b]quinolin-7-yloxy)propyl]-1H-tetrazol-1-yl]-1-piperidinecarboxylate], the IC50 in data set [1] was determined as 0.2 µg/mL (≈ 0.429 µM). Consider `CCC(CC)CN1CCC(n2nnnc2CCCOc2ccc3nc4[nH]c(=O)[nH]c4cc3c2)CC1` [Cmpd 12e, [5-[3-(2, 3 -Dihydro-2-oxo-1H-imidazo [4,5-b]quinolin-7-yloxy)propyl]-1l H-tetrazol-1-yl]-1-(2-ethylbut-1-yl) piperidine dihydrochloride], for which the IC50 in data set [1] was 0.007 µg/mL. Besides, the solubility in “aqueous solubility” is more than 10000 µg/mL. The corresponding values for `Oc1nc2cc3cc(OCCCCc4nnnn4C4CCN(Cc5ccc(F)cc5)CC4)ccc3[nH]c-2n1` [Cmpd 13c, dihydrochloride] are 0.031 µg/mL and more than 5000 µg/mL. The corresponding values for `Oc1nc2cc3cc(OCCCCc4nnnn4C4CCN(CC5CCCCC5)CC4)ccc3[nH]c-2n1` [Cmpd 13d, dihydrochloride] are 0.012 µg/mL and more than 5000 µg/mL. The corresponding values for `CCCC(CCC)CN1CCC(n2nnnc2CCCOc2ccc3nc4[nH]c(=O)[nH]c4cc3c2)CC1` [Cmpd 12j, [5-[3-(2,3-Dihydro-2-oxo-1H-imidazo [4,5-b]quinolin-7-yloxy)propyl]-1H-tetrazol-1-yl]-1-(2-propylpent-1-yl) piperidine dihydrochloride] are 0.048 µg/mL and approximately 2000 µg/mL. With `CC(C)CN1CCC(n2nnnc2CCCCOc2ccc3nc4[nH]c(=O)[nH]c4cc3c2)CC1` [Cmpd 13f, dihydrochloride], the IC50 in data set [1] was 0.005 µg/mL. In addition, the solubility in “aqueous solubility” was more than 10000 µg/mL. Regarding `CCC(CC)CN1CCC(n2nnnc2CCCCOc2ccc3nc4[nH]c(=O)[nH]c4cc3c2)CC1` [Cmpd 13e, [5-[3-(2,3-Dihydro-2-oxo-1H-imidazo[4,5-b]quinolin-7-yloxy)butyl]-1H-tetrazol-1-yl]-1-(2-ethybut-1-yl) piperidine dihyudrochloride], in data set [1], the IC50 stood at 0.0068 µg/mL (≈ 0.0138 µM). In addition, the solubility in “aqueous solubility” is more than 5000 µg/mL. The corresponding values for `Oc1nc2cc3cc(OCCCc4nnnn4C4CCNCC4)ccc3[nH]c-2n1` [Cmpd 12a, [5-[3-(2,3-Dihydro-2-oxo-1H-imidazo[4,5-b]quinolin-7-yloxy)propyl]-1H-tetrazol-1-yl]piperidine dihydrochloride] are 5.4 µg/mL and more than 20000 µg/mL. As to `Cl.Cl.O=c1[nH]c2cc3cc(OCCCc4nnnn4C4CCN(CC5CCCCCC5)CC4)ccc3nc2[nH]1` [Cmpd 12i, 1-Cycloheptylmethyl-4-[5-[3-(2,3-dihydro-2-oxo-1H-imidazo[4,5-b]quinolin-7-yl-oxy)propyl]-1H-tetrazol-1-yl]piperidine dihydrochloride], the IC50 in data set [1] was determined as 0.01 µg/mL. Also, in the data set “aqueous solubility”, the solubility was approximately 1000 µg/mL. In the case of `CCOC(=O)N1CCC(n2nnnc2CCCCOc2ccc3nc4[nH]c(=O)[nH]c4cc3c2)CC1` [Cmpd 10b], the IC50 in data set [1] came to 0.05 µg/mL (≈ 0.104 µM).

In the case of `Oc1nc2cc3cc(OCCCc4nnnn4C4CCN(CC5CCCCC5)CC4)ccc3[nH]c-2n1` [Cmpd 12d, (Cyclohexylmethyl)-4-[5-[3-(2,3-dihydro-2-oxo-1H-imidazo[4,5-b]quinolin-7-yloxy)propyl]-1H-tetrazol-1-yl]piperidine dihydrochloride], the IC50 in data set [1] came out at 0.009 µg/mL. Further, the solubility in the data set “aqueous solubility” was more than 10000 µg/mL. On to `Oc1nc2cc3cc(OCCCc4nnnn4C4CCN(Cc5ccc(F)cc5)CC4)ccc3[nH]c-2n1` [Cmpd 12c, [5-[3-(2,3-Dihydro-2-oxo-1H-imidazo[4,5-b]quinolin-7-yloxy)propyl]-1H-tetrazol-l-yl]-1-[(4-fluorophyl)methyl]piperidine dihydrochloride], for which, in data set [1], the IC50 turned out to be 0.019 µg/mL. Also, the solubility in “aqueous solubility” is more than 10000 µg/mL.

As for `Oc1nc2cc3cc(OCCCCc4nnnn4C4CCN(Cc5ccccc5)CC4)ccc3[nH]c-2n1` [Cmpd 13b, dihydrochloride], the IC50 in data set [1] amounted to 0.018 µg/mL. The solubility in the data set “aqueous solubility” was more than 5000 µg/mL.

For `Oc1nc2cc3cc(OCCCCc4nnnn4C4CCNCC4)ccc3[nH]c-2n1` [Cmpd 13a, dihydrochloride], in data set [1], the IC50 was determined as 2.6 µg/mL. The solubility in “aqueous solubility” was approximately 5000 µg/mL.

Turning to `Cl.Cl.O=c1[nH]c2cc3cc(OCCCc4nnnn4C4CCN(CC5CCCC5)CC4)ccc3nc2[nH]1` [Cmpd 12h, 1-Cyclopentylmethyl-4-[5-[3-(2,3-dihydro-2-oxo-1H-imidazo[4,5-b]quinolin-7-yloxy)propyl]-1H-tetrazol-1-yl]piperidine dihydrochloride], in data set [1], the IC50 stood at 0.005 µg/mL. Moreover, the solubility in “aqueous solubility” fell in the range of 2000 to 3000 µg/mL.
